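48-hour exposure; five concentrations; linearly interpolated endpoints. The concentration for 50% growth inhibition is given as GI50. TGI denotes the concentration required for complete inhibition of growth.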
Legend:
Assay in all cases: inhibition of tumour cell growth, NCI panel, 48 h
[1] = tested on: 786-0 renal
[2] = tested on: A498 renal
[3] = tested on: A549 NSCLC
[4] = tested on: ACHN renal
[5] = tested on: BT-549 breast
[6] = tested on: CAKI-1 renal
[7] = tested on: CCRF-CEM leukemia
[8] = tested on: COLO 205 colon
[9] = tested on: DU-145 prostate
[10] = tested on: HCC-2998 colon
[11] = tested on: HCT-116 colon
[12] = tested on: HCT-15 colon
[13] = tested on: HL-60(TB) leukemia
[14] = tested on: HOP-62 NSCLC
[15] = tested on: HOP-92 NSCLC
[16] = tested on: HS 578T breast
[17] = tested on: HT29 colon
[18] = tested on: IGROV1 ovarian
[19] = tested on: K-562 leukemia
[20] = tested on: KM12 colon
[21] = tested on: LOX IMVI melanoma
[22] = tested on: M14 melanoma
[23] = tested on: MALME-3M melanoma
[24] = tested on: MCF7 breast
[25] = tested on: MDA-MB-231 breast
[26] = tested on: MDA-MB-435
[27] = tested on: MOLT-4 leukemia
[28] = tested on: NCI-H226 lung
[29] = tested on: NCI-H23 lung
[30] = tested on: NCI-H460 lung
[31] = tested on: NCI-H522 lung
[32] = tested on: NCI/ADR-RES ovarian
[33] = tested on: OVCAR-3 ovarian
[34] = tested on: OVCAR-4 ovarian
[35] = tested on: OVCAR-5 ovarian
[36] = tested on: OVCAR-8 ovarian
[37] = tested on: PC-3 prostate
[38] = tested on: RPMI-8226 leukemia
[39] = tested on: RXF 393 renal
[40] = tested on: SF-268 CNS
[41] = tested on: SF-295 CNS
[42] = tested on: SF-539 CNS
[43] = tested on: SK-MEL-2 melanoma
[44] = tested on: SK-MEL-28 melanoma
[45] = tested on: SK-MEL-5 melanoma
[46] = tested on: SK-OV-3 ovarian
[47] = tested on: SN12C renal
[48] = tested on: SNB-19 CNS
[49] = tested on: SNB-75 CNS
[50] = tested on: SR leukemia
[51] = tested on: SW-620 colon
[52] = tested on: T-47D breast
[53] = tested on: TK-10 renal
[54] = tested on: U251 CNS
[55] = tested on: UACC-257 melanoma
[56] = tested on: UACC-62 melanoma
[57] = tested on: UO-31 renal

## C[C@H](CS(C)(=O)=O)Nc1ncc2cc(Oc3ccc(F)cc3F)c(=O)n(C)c2n1
[1]
  GI50: > 25 µM
  TGI: > 25 µM
[2]
  GI50: > 25 µM
  TGI: > 25 µM
[3]
  GI50: > 25 µM
  TGI: > 25 µM
[4]
  GI50: > 25 µM
  TGI: > 25 µM
[5]
  GI50: > 25 µM
  TGI: > 25 µM
[6]
  GI50: > 25 µM
  TGI: > 25 µM
[7]
  GI50: > 25 µM
  TGI: > 25 µM
[8]
  GI50: > 25 µM
  TGI: > 25 µM
[9]
  GI50: > 25 µM
  TGI: > 25 µM
[10]
  GI50: > 25 µM
  TGI: > 25 µM
[11]
  GI50: > 25 µM
  TGI: > 25 µM
[12]
  GI50: > 25 µM
  TGI: > 25 µM
[13]
  GI50: > 25 µM
  TGI: > 25 µM
[14]
  GI50: > 25 µM
  TGI: > 25 µM
[15]
  GI50: > 10.4 µM
  TGI: > 25 µM
[16]
  GI50: > 25 µM
  TGI: > 25 µM
[17]
  GI50: > 25 µM
  TGI: > 25 µM
[18]
  GI50: > 25 µM
  TGI: > 25 µM
[19]
  GI50: > 25 µM
  TGI: > 25 µM
[20]
  GI50: > 25 µM
  TGI: > 25 µM
[21]
  GI50: > 25 µM
  TGI: > 25 µM
[22]
  GI50: > 25 µM
  TGI: > 25 µM
[23]
  GI50: > 25 µM
  TGI: > 25 µM
[24]
  GI50: > 25 µM
  TGI: > 25 µM
[25]
  GI50: > 25 µM
  TGI: > 25 µM
[26]
  GI50: > 25 µM
  TGI: > 25 µM
[27]
  GI50: > 25 µM
  TGI: > 25 µM
[28]
  GI50: > 25 µM
  TGI: > 25 µM
[29]
  GI50: > 25 µM
  TGI: > 25 µM
[30]
  GI50: > 25 µM
  TGI: > 25 µM
[31]
  GI50: > 25 µM
  TGI: > 25 µM
[32]
  GI50: > 25 µM
  TGI: > 25 µM
[33]
  GI50: > 25 µM
  TGI: > 25 µM
[34]
  GI50: > 25 µM
  TGI: > 25 µM
[35]
  GI50: > 25 µM
  TGI: > 25 µM
[36]
  GI50: > 25 µM
  TGI: > 25 µM
[37]
  GI50: > 25 µM
  TGI: > 25 µM
[38]
  GI50: > 25 µM
  TGI: > 25 µM
[39]
  GI50: > 25 µM
  TGI: > 25 µM
[40]
  GI50: > 25 µM
  TGI: > 25 µM
[41]
  GI50: > 25 µM
  TGI: > 25 µM
[42]
  GI50: > 25 µM
  TGI: > 25 µM
[43]
  GI50: > 25 µM
  TGI: > 25 µM
[44]
  GI50: > 25 µM
  TGI: > 25 µM
[45]
  GI50: > 25 µM
  TGI: > 25 µM
[46]
  GI50: > 25 µM
  TGI: > 25 µM
[47]
  GI50: > 25 µM
  TGI: > 25 µM
[48]
  GI50: > 25 µM
  TGI: > 25 µM
[49]
  GI50: > 25 µM
  TGI: > 25 µM
[50]
  GI50: > 25 µM
  TGI: > 25 µM
[51]
  GI50: > 25 µM
  TGI: > 25 µM
[52]
  GI50: > 25 µM
  TGI: > 25 µM
[53]
  GI50: > 25 µM
  TGI: > 25 µM
[54]
  GI50: > 25 µM
  TGI: > 25 µM
[55]
  GI50: > 25 µM
  TGI: > 25 µM
[56]
  GI50: > 25 µM
  TGI: > 25 µM
[57]
  GI50: > 25 µM
  TGI: > 25 µM
